Laboratory results: US9115151B2, “Substituted 2,10-dihydro-9-oxa-1,2,4A-triazaphenanthren-3-ones and uses thereof” (AbbVie Inc., priority 2012, dated 2015)

Legend:
[1] = biological target: T1, PKCα (Homo sapiens, UniProt P17252); experiment: In vitro enzyme assay (time-resolved fluorescence kinase assay), PKCα, 100 μM ATP; assay type: biochemical; settings: 100 μM ATP; read-out: PKCα enzyme IC50
T1 construct: His6; purchased Millipore; host or cells: baculovirus in Sf21 cells
In short: (§1)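 Read-out was time-resolved fluorescence, corrected for a minus-enzyme blank and converted to percent activity relative to enzyme without drug. They were stopped with EDTA.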

[2] = biological target: T2, PKCθ (Homo sapiens, UniProt Q04759); experiment: In vitro enzyme assay (time-resolved fluorescence kinase assay), PKCθ, 100 μM ATP; assay type: biochemical
T2 construct: His6; purchased Millipore; host or cells: baculovirus in Sf21 cells
T2 sequence (Q04759 whole entry): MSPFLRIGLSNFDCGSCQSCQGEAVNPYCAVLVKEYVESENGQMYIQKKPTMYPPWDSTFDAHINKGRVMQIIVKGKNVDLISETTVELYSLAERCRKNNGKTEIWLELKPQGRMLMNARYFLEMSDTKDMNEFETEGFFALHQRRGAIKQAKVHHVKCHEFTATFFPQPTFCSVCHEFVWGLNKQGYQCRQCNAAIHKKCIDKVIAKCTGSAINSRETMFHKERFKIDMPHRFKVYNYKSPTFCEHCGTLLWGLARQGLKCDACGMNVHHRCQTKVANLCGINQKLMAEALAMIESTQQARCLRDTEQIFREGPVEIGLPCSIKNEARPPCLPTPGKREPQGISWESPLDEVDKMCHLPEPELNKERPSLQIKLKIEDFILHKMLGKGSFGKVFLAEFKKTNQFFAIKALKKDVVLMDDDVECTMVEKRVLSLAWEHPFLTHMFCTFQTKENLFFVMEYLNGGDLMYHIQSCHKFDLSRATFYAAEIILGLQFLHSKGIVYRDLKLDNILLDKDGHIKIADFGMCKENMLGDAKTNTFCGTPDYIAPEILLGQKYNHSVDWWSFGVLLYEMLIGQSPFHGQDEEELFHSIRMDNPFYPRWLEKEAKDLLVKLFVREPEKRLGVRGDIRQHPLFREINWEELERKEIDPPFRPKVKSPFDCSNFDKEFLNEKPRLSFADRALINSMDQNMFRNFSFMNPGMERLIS
In short: as §1

[3] = test system: CD3/CD28 induced IL-2 in human T-Blasts; experiment: T-Blasts CD3/CD28 induced IL-2 assay; assay type: cell-based; settings: read-out: CD3/CD28-stimulated IL2 in T-blasts EC50
In short: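 IL-2 in supernatants read after 24 h 37° C stimulation of human PHA T-blasts (2×10^5/well) with anti-CD3/anti-CD28 at 5 μg/mL final. Duplicate eight-point, 1/3-step compound series added 30 min before stimulus; residual cells checked by MTT for toxicity.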

SMILES | IC50 [1] [nM] | IC50 [2] [nM] | EC50 [3] [nM]
C[C@@H]1C(=O)NN=C2COc3cc(-c4ccccc4F)c(N4[C@@H]5CC[C@H]4CN(C)C5)cc3N21 [Example 235] | 250 to 1000 | < 250 | 250 to 1000
C[C@@H]1C(=O)NN=C2COc3cc(-c4ccc(F)cc4F)c([C@@H]4CCN(C)C[C@@H]4C)cc3N21 [Example 238] | < 250 | < 250 | < 250
C[C@@H]1CN(C)[C@@H](C)CN1c1cc2c(cc1-c1ccccc1F)OCC1=NNC(=O)[C@@H](C)N12 [Example 246, (R)-7-(2-Fluoro-phenyl)-4-methyl-6-((2R,5S)-2,4,5-trimethyl-piperazin-1-yl)-2,10-dihydro-9-oxa-1,2,4a-triaza-phenanthren-3-one] | 250 to 1000 | < 250 | < 250
C[C@@H]1C(=O)NN=C2COc3cc(-c4ccccc4F)c(N4C[C@H](C)N(C)C[C@@H]4C)cc3N21 [Example 247] | < 250 | < 250 | < 250
CC1C(=O)NN=C2COc3cc4ccn(C5CN(C)C5)c4cc3N21 (stereo not drawn) [compound 161] | 1000 to 10000 | < 250 | 250 to 1000

Now from value to compound:

IC50 [1] [nM] | IC50 [2] [nM] | EC50 [3] [nM] | SMILES
1000 to 10000 | < 250 | 250 to 1000 | CC[C@H]1CN(C)CCN1c1cc2c(cc1-c1ccccc1F)OCC1=NNC(=O)[C@@H](C)N12 [Example 234]
1000 to 10000 | < 250 | 1000 to 10000 | CC1C(=O)NN=C2COc3cc(-c4ccccc4F)c(N4CC5CCC4CN5C)cc3N21 (stereo not drawn) [Example 236]
250 to 1000 | < 250 | < 250 | CC(C)c1cc2c(cc1[C@@H]1CCN(C)C[C@@H]1C)N1C(=NNC(=O)[C@H]1C)CO2 [Example 244]
